# Experiments:
# in vitro = conditions: for Mean Transnasal Flux: diazepam, 37° C., n = 2
# Excerpt: The nasal mucous membrane used in these in vitro experiments was obtained from New Zealand White rabbits (2.5-3.0 kg). Rabbits were sacrificed by IV injection of phenobarbital. The nasal septum was carefully removed from a bone block using surgical scissors and a bone-cutting saw. Two pieces of nasal mucous membranes were then carefully stripped from the nasal septum without touching the center of the membrane surface and rinsed with normal saline solution. The mucosal membrane was mounted between two half-cells of a glass diffusion cell apparatus. The exposed area of the nasal membrane was approximately 0.64 cm^2. A test solution or suspension (3.5 ml) was introduced into the mucosal side of the membrane in the donor compartment while 3.5 ml of 10% ethanol, 40% propylene glycol, and 50% pH 7.4 isotonic phosphate buffer solution was added to the receptor compartment. The entire diffusion system was maintained at 37° C. throughout the experiment. At predetermined time intervals, 100 μl of the receptor solution was withdrawn for the assay and refilled with the same volume of fresh receptor medium to keep the volume constant. The steady-state flux value was determined from the slope of the straight line attained from the plot of the cumulative amount of drug permeated as a function of time. Each experiment was carried out in at least duplicate.
# A high pressure liquid chromatographic system equipped with a multi-solvent delivery system (Model 600E, Waters Associates, Milford, Mass.), an auto-injector (Model 717 Plus, Waters Ass.), a photodiode array detector (Model 996, Waters Ass.), a reverse phase Symmetric C18 column (150 mm ×3.9 mm ID, 5 μm), and a Millenium 2010 software computer system was used in this study.
# In these studies, a series of bile salts such as sodium cholate, sodium deoxycholate, sodium taurocholate, and sodium glycocholate, and a lecithin such as lysophosphatidylcholine were examined. The permeation rates were measured using the method described under the in vitro membrane permeation test method.
# The permeation rates were determined utilizing the method described in Example 1.
# The in vitro membrane permeation rates were measured using the test method described in Example 1.
# Sample drug solutions (10 mg/ml) were prepared with the vehicle with and without the bile salt. The membrane permeation rates were measured in the use of the test method described in Example 1.
# The in vitro permeation experiments were performed using the test method described in Example 1.
# [1] = Bioavailability and pharmacokinetics of (S)-2-carbamoyloxyl-1-o-chlorophenylethanol preparations after IV and IN administration; type: in vivo; conditions: rabbits
# Description: A formulation for IV injection was prepared by dissolving 15 mg (S)-2-carbamoyloxyl-1-o-chlorophenylethanol in 1 mL of 40% PEG 400 and 60% water and filtering through a sterile membrane filter under aseptic conditions. The formulations were administered to rabbits (n=2-4) at the two dosing levels of 2.5 mg/kg and 5 mg/kg in a manner analogous to that described in Example 7. A repeated dosing regimen at 5 minute intervals was also studied in the nasal application of the preparation of the invention. […] To the plasma sample, 50 μl of an internal standard solution (2-(2,6-dichlorophenyl)-2-carbamoyloxyethyl)oxocarboxamide-10 μg/ml) and 5 ml of methyl-butyl ether were added. The mixture was vortexed for 60 seconds and centrifuged at 3500 rpm for 10 minutes. […] The residue was reconstituted with 200 μl of deionized water. The (S)-2-carbamoyloxyl-1-o-chlorophenylethanol concentration in the plasma was determined by HPLC in the use of a mobile phase consisting of 20% acetonitrile and 80% water with a flow rate of 1 ml/minute and UV detection at 210 nm. The detection limit for (S)-2-carbamoyloxyl-1-o-chlorophenylethanol was 23 nmol/l. The pharmacokinetic parameters determined after IV and IN administration of (S)-2-carbamoyloxyl-1-o-chlorophenylethanol at two dose strengths are presented in Table VIII. […]
# [2] = Bioavailability and pharmacokinetics of clonazepam preparations after IV and IN administration; conditions: rabbits
# [3] = dogs, after the nasal administration; cited from earlier work
# [4] = vehicle 30% ethanol, 60% propylene glycol, 10% water, initial drug concentration 5mg/ml
smiles,measurement,setting,value
NC(=O)OC[C@@H](O)c1ccccc1Cl [(S)-2-carbamoyloxyl-1-o-chlorophenylethanol],Papp at 5 mg/ml,"in vitro; New Zealand White, rabbit",27.1 ×10⁻⁶ cm/s
same,Transnasal Flux,"in vitro; New Zealand White, rabbit, 5 mg/ml",487.6 μg/cm^2/hr
same,time at which plasma concentration after the second dosing exceeded the plasma level of a single IV injection,[1]; IN 5 mg/kg × 2 vs IV 5 mg/kg,30 min
same,Cmax and AUC0-240 minutes after the second intranasal application,"[1]; second IN application 5 minutes after the first dosing, 5 mg/kg × 2",doubled
"O=C1CN=C(c2ccccc2Cl)c2cc([N+](=O)[O-])ccc2N1 [Clonazepam, clonazepam]",Papp at 5 mg/ml,"in vitro; New Zealand White, rabbit",19.3 ×10⁻⁶ cm/s
same,Transnasal Flux,in vitro; [4],347.7 μg/cm^2/hr
same,time to initial peak plasma concentration,[2]; after the first intranasal application,≤ 2 min
same,peak plasma level relative to the IV injection,[2]; first intranasal application 0.2 mg/kg,about 32%
same,peak plasma concentration after the third application compared with the single IV injection,"[2]; third IN application at 5 minutes intervals, peak observed at 15 minutes",nearly identical
"CN1C(=O)CN=C(c2ccccc2)c2cc(Cl)ccc21 [Diazepam, diazepam]",increase in the steady-state flux when 1% sodium glycocholate is incorporated into the vehicle,"in vitro; 10 mg/ml diazepam in 30% ethanol, 60% propylene glycol, 10% water with vs without 1% SGC (FIG. 3)",approximately 50%
same,Mean Transnasal Flux,in vitro; vehicle 1% Lysophosphotidylcholine/H2O,125.5 μg/cm^2/hr
same,Mean Transnasal Flux,in vitro; vehicle 1% Sodium Cholate/H2O,66.3 μg/cm^2/hr
same,Mean Transnasal Flux,in vitro; vehicle 1% Sodium Deoxycholate/H2O,74.9 μg/cm^2/hr
same,Mean Transnasal Flux,in vitro; vehicle 1% Sodium Glycocholate/H2O,96.4 μg/cm^2/hr
same,Mean Transnasal Flux,in vitro; vehicle 1% Sodium Taurocholate/H2O,87.0 μg/cm^2/hr
same,Mean Transnasal Flux,in vitro; vehicle Water,79.5 μg/cm^2/hr
same,Transnasal Flux,in vitro; [4],246.0 μg/cm^2/hr
Cc1nnc2n1-c1ccc(Cl)cc1C(c1ccccc1Cl)=NC2 [triazolam],time to maximum plasma concentration,[3],18 min

# — patent US6627211B1, “Transnasal anticonvulsive compositions and modulated process” (SK Corporation, priority 1999, dated 2003)
